The values that follow come from paper PMC7224190, “Pharmacological inhibition of PRMT7 links arginine monomethylation to the cellular stress response” (Nature Communications, 2020).

Common to all, as to assay: biochemical
What all share (design): radiometric methyltransferase selectivity assay with tritiated SAM, per cent activity
Holding throughout (settings): read-out: % of control remaining

One assay has as its target T1, BCDIN3D (Homo sapiens, UniProt Q7Z5W3).
T1 sequence (Q7Z5W3 1-292): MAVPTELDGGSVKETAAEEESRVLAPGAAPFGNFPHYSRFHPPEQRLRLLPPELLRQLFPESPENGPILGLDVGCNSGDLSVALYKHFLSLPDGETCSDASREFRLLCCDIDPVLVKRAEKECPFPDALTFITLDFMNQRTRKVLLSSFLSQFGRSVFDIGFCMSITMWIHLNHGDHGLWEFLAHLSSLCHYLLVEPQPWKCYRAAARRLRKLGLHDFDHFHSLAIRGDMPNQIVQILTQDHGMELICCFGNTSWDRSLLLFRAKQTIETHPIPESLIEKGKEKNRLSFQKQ
The essentials:
(§1)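 Radiometric methyltransferase assays with ³H-SAM and substrate near apparent Km, compound tested at 1 and 10 μM. Methyl incorporation into biotinylated substrate read by scintillation proximity after guanidine quench; no-compound = 100%, no-enzyme = 0% activity.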

The next assay concerns the target DNMT3B/3L (Homo sapiens, UniProt Q9UBC3).
The next assay addresses PRMT1 (Homo sapiens, UniProt Q99873). The essentials:
as §1

In another assay the target is PRMT5-MEP50 (Homo sapiens, UniProt O14744). The essentials: as §1
Sequence of PRMT5-MEP50 (O14744 whole entry): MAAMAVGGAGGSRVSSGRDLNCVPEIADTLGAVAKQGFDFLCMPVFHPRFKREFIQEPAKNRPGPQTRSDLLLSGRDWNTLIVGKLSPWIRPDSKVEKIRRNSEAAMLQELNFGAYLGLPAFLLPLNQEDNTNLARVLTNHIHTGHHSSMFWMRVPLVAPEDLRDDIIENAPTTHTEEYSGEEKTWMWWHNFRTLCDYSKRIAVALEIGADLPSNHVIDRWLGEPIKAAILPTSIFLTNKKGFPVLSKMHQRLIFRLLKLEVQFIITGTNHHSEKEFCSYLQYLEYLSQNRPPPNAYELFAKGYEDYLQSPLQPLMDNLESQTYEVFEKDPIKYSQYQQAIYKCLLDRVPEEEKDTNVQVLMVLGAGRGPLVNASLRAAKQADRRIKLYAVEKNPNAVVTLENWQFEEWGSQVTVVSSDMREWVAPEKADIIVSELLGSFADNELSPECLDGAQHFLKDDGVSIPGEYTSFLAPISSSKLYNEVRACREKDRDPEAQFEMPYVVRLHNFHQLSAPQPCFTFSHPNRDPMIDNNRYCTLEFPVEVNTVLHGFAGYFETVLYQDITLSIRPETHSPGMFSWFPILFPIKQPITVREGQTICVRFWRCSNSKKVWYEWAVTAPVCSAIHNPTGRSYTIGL
Sequence of PRMT5-MEP50 (Q9BQA1 whole entry partner): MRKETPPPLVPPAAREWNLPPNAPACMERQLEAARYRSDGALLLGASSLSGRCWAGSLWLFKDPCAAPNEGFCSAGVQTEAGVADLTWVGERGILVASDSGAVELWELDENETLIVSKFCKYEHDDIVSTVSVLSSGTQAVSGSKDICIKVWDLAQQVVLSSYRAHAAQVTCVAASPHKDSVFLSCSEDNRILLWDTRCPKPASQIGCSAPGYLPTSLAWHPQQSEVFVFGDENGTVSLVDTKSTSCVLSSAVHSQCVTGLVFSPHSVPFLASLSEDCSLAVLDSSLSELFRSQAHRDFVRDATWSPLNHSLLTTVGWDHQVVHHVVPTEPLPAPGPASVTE
The next assay addresses PRMT6 (Homo sapiens, UniProt Q96LA8). A digest of the protocol:
as §1

The target in a further assay is T2, SMYD3 (Homo sapiens, UniProt Q9H7B4).
T2 sequence (Q9H7B4 1-428): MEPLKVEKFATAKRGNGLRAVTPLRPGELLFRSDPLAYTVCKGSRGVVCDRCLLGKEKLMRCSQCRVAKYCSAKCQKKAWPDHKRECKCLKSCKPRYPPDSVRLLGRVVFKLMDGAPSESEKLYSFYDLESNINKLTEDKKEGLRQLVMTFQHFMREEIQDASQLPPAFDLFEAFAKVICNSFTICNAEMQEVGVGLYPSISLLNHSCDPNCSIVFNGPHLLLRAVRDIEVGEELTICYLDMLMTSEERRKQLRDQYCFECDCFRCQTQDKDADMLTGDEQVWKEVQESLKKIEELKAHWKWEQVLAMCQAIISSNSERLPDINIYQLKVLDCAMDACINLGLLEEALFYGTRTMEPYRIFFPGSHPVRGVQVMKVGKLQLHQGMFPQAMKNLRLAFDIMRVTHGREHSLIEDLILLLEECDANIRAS
A digest of the protocol:
as §1

Sequence of PRMT6 (Q96LA8 whole entry): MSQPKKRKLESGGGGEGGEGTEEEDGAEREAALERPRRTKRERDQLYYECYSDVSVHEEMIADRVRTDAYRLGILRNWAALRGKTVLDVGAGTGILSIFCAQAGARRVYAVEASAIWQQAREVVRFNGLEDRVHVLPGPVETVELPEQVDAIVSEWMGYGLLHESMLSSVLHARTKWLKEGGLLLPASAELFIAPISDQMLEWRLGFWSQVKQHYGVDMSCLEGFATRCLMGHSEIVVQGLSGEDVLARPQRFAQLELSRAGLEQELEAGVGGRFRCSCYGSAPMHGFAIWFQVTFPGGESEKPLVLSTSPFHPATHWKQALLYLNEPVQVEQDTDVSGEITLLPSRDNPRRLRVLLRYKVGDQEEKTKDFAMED
Sequence of PRMT1 (Q99873 whole entry): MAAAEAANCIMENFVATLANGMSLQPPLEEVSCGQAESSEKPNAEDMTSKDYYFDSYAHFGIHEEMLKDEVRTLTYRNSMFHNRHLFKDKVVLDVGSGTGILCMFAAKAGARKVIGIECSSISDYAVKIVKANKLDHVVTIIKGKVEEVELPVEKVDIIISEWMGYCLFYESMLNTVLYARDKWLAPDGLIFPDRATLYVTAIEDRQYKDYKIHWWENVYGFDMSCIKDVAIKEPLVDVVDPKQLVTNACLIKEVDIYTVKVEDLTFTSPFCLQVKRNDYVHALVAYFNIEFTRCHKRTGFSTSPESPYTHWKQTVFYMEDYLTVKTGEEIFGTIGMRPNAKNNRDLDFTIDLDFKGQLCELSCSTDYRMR

Take `CC1(C)O[C@@H]2[C@H](O1)[C@@H](CSCCCCNCc1cccc(-c3ccc(Cl)cc3)c1)O[C@H]2n1cnc2c(N)ncnc21` [SGC8158N]: the remaining activity at 1 µM at BCDIN3D was determined as 96%; at DNMT3B/3L it was 104%; on PRMT1 it was 94%; on PRMT5-MEP50 it was 101%; on PRMT6, 94%; on SMYD3 it was 100%. Moreover, the remaining activity at 10 µM on BCDIN3D stood at 94%; at DNMT3B/3L it was 103%; on PRMT1, 91%; at PRMT5-MEP50, 91%; on PRMT6, 87%; on SMYD3, 102%.

For the compound `Nc1ncnc2c1ncn2[C@@H]1O[C@H](CSCCCCNCc2cccc(-c3ccc(Cl)cc3)c2)[C@@H](O)[C@H]1O` [SGC8158], the remaining activity at 1 µM turned out to be 55% at BCDIN3D; 100% at DNMT3B/3L; 104% at PRMT1; 15% on PRMT5-MEP50; 100% on PRMT6; 102% at SMYD3. Moreover, the remaining activity at 10 µM at BCDIN3D is 11%; at DNMT3B/3L, 101%; at PRMT1 it was 67%; at PRMT5-MEP50, 2%; at PRMT6, 58%; at SMYD3 it was 104%.
